Where two headings read alike, the source gives them in different places.
Key:
human CB2 receptors = human CB2 receptors (Homo sapiens (Human), UniProt P34972); test: functional cAMP assay, CHO cells expressing human CB2; type: cell-based
Procedure, shortened: (§1)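 Agonist EC50 values came from cAMP levels in CHO cells carrying human CB1 or CB2, after 30 min of compound treatment at 30 °C in the presence of 1 mM IBMX. Detection used a time-resolved FRET cAMP kit read against a cAMP standard curve.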

human CB1 receptors = human CB1 receptors (Homo sapiens (Human), UniProt P21554); test: functional cAMP assay, CHO cells expressing human CB1; type: cell-based
Procedure, shortened: as §1

[1] = functional cAMP assay, CHO cells expressing human CB1; read-out: Human CB1 EC50
[2] = Human CB1 EC50 (uM), functional cAMP assay, CHO cells expressing human CB1
[3] = read-out: Human CB1 EC50; functional cAMP assay, CHO cells expressing human CB1

Sequence of human CB2 receptors (P34972 whole entry): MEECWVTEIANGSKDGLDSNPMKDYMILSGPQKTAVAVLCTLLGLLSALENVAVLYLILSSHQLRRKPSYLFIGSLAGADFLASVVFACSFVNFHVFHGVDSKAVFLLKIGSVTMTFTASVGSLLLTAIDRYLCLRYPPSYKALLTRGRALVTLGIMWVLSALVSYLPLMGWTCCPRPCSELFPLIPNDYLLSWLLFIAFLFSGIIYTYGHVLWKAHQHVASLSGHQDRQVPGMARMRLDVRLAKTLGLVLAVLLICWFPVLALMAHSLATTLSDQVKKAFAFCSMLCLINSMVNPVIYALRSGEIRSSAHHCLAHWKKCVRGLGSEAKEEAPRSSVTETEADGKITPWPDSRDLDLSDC
Sequence of human CB1 receptors (P21554 whole entry): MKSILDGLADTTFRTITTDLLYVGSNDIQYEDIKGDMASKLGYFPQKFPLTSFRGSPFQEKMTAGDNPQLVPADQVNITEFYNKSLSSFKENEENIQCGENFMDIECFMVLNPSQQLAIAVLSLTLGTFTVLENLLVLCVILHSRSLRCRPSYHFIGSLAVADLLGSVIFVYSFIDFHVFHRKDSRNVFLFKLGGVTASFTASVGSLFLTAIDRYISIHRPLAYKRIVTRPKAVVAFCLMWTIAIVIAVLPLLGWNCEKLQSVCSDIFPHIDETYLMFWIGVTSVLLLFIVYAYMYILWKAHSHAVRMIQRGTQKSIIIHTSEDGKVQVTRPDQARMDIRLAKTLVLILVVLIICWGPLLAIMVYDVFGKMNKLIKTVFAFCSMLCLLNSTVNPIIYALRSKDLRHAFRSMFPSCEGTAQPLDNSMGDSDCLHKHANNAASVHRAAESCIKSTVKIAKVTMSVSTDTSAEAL

Compound	EC50 (human CB2 receptors; read-out: Human CB2 EC50)	EC50 (human CB1 receptors; [1])	EC50 (human CB2 receptors; Human CB2 EC50 (uM))	EC50 (human CB1 receptors; [2])	EC50 (human CB1 receptors; [3])
CC(C)C[C@@H](CO)NC(=O)c1cc(OCC2CC2)c(Cl)cn1 [Example 7, 5-Chloro-4-cyclopropylmethoxy-pyridine-2-carboxylic acid ((S)-1-hydroxymethyl-3-methyl-butyl)-amide]	0.0523 µM	> 10 µM	–	–	–
Cc1nc(C(C)(CS(C)(=O)=O)NC(=O)c2cc(O[C@@H](C)C(F)(F)F)c(C3CCC3)cn2)no1 (stereo partly drawn) [Example 119, 5-cyclobutyl-N-[2-(5-methyl-1,2,4-oxadiazol-3-yl)-1-methylsulfonylpropan-2-yl]-4-[(2S)-1,1,1-trifluoropropan-2-yl]oxypyridine-2-carboxamide]	0.0091 µM	> 10 µM	–	–	–
CC(C)(C)C(NC(=O)c1cc(OCC2CC2)c(C2CC2)cn1)c1nccs1 (centres unmarked) [Example 43, 5-Cyclopropyl-4-cyclopropylmethoxy-pyridine-2-carboxylic acid (2,2-dimethyl-1-thiazol-2-yl-propyl)-amide]	0.0032 µM	> 10 µM	–	–	–
CC(CF)Oc1cc(C(=O)NC(C)(CC(N)=O)C2CC2)ncc1C1CC1 (single isomer, unassigned) [Example 301, N-(4-amino-2-cyclopropyl-4-oxobutan-2-yl)-5-cyclopropyl-4-(1-fluoropropan-2-yloxy)picolinamide]	–	–	0.0304 µM	> 10 µM	–
Cc1nc(C(C)(NC(=O)c2cc(OCC(F)(F)F)c(Cl)cn2)C2CC2)no1 (centres unmarked) [Example 62, 5-Chloro-4-(2,2,2-trifluoro-ethoxy)-pyridine-2-carboxylic acid [1-cyclopropyl-1-(5-methyl-[1,2,4]oxadiazol-3-yl)-ethyl]-amide]	0.0089 µM	> 10 µM	–	–	–
CC(C)[C@H](CO)NC(=O)c1cc(OCC2CC2)c(Cl)cn1 [Example 11, 5-Chloro-4-cyclopropylmethoxy-pyridine-2-carboxylic acid ((R)-1-hydroxymethyl-2-methyl-propyl)-amide]	0.0554 µM	> 10 µM	–	–	–
Cc1nc(C(C)(CC2CC2)NC(=O)c2cc(OCCF)c(C3CC3)cn2)no1 (centres unmarked) [Example 146, 5-cyclopropyl-N-[1-cyclopropyl-2-(5-methyl-1,2,4-oxadiazol-3-yl)propan-2-yl]-4-(2-fluoroethoxy)pyridine-2-carboxamide]	0.0018 µM	> 10 µM	–	–	–
C[C@H](Oc1cc(C(=O)NC(c2noc(N)n2)C(C)(C)C)ncc1C1CC1)C(F)(F)F (stereo partly drawn) [Example 218, N-[1-(5-amino-1,2,4-oxadiazol-3-yl)-2,2-dimethylpropyl]-5-cyclopropyl-4-[(2S)-1,1,1-trifluoropropan-2-yl]oxypyridine-2-carboxamide]	0.0068 µM	> 10 µM	–	–	–
C[C@H](Oc1cc(C(=O)NC(c2noc(N)n2)C(C)(C)C)ncc1C1CC1)C(F)(F)F (stereo partly drawn) [Example 213, N-[1-(5-amino-1,2,4-oxadiazol-3-yl)-2,2-dimethylpropyl]-5-cyclopropyl-4-[(2S)-1,1,1-trifluoropropan-2-yl]oxypyridine-2-carboxamide]	0.0111 µM	> 10 µM	–	–	–
C[C@H](Oc1cc(C(=O)NC(C(N)=O)C2(C)COC2)ncc1C1CC1)C(F)(F)F (stereo partly drawn) [Example 251, N-[2-amino-1-(3-methyloxetan-3-yl)-2-oxoethyl]-5-cyclopropyl-4-[(2S)-1,1,1-trifluoropropan-2-yl]oxypyridine-2-carboxamide]	0.0089 µM	> 10 µM	–	–	–
Cc1nc(C(C)(CC2CC2)NC(=O)c2cc(OCC(F)F)c(C3CC3)cn2)no1 (centres unmarked) [Example 145, 5-cyclopropyl-N-[1-cyclopropyl-2-(5-methyl-1,2,4-oxadiazol-3-yl)propan-2-yl]-4-(2,2-difluoroethoxy)pyridine-2-carboxamide]	0.0034 µM	> 10 µM	–	–	–
Cc1nc(C(C)(NC(=O)c2cc(OCC(F)(F)F)c(C3CC3)cn2)C2CC2)no1 (centres unmarked) [Example 49, 5-Cyclopropyl-4-(2,2,2-trifluoro-ethoxy)-pyridine-2-carboxylic acid [1-cyclopropyl-1-(5-methyl-[1,2,4]oxadiazol-3-yl)-ethyl]-amide]	0.0017 µM	> 10 µM	–	–	–
Cn1nnnc1C(C)(CC1CC1)NC(=O)c1cc(OCC(F)(F)F)c(C2CC2)cn1 (single isomer, unassigned) [Example 228, 5-cyclopropyl-N-[1-cyclopropyl-2-(1-methyltetrazol-5-yl)propan-2-yl]-4-(2,2,2-trifluoroethoxy)pyridine-2-carboxamide]	–	–	0.0346 µM	> 10 µM	–
O=C(NC1(CO)CCCCC1)c1cc(OCC(F)(F)F)c(C2CC2)cn1 [Example 55, 5-Cyclopropyl-4-(2,2,2-trifluoro-ethoxy)-pyridine-2-carboxylic acid (1-hydroxymethyl-cyclohexyl)-amide]	0.0157 µM	> 10 µM	–	–	–
CC(CC(N)=O)(NC(=O)c1cc(OCC(F)(F)F)c(C2CC2)cn1)C1CC1 (single isomer, unassigned) [Example 244, N-[4-amino-2-cyclopropyl-4-oxobutan-2-yl]-5-cyclopropyl-4-(2,2,2-trifluoroethoxy)pyridine-2-carboxamide]	–	–	0.0284 µM	–	> 10 µM
O=C(N[C@H](c1ccccn1)C(F)(F)F)c1cc(OCC2CC2)c(Cl)cn1 [Example 16, (+)-5-Chloro-4-cyclopropylmethoxy-pyridine-2-carboxylic acid (2,2,2-trifluoro-1-pyridin-2-yl-ethyl)-amide]	0.0031 µM	0.815 µM	–	–	–
Cc1nc(C(C)(CS(C)(=O)=O)NC(=O)c2cc(OCC(F)(F)F)c(N3CC(F)(F)C3)cn2)no1 (centres unmarked) [Example 95, 5-(3,3-Difluoro-azetidin-1-yl)-4-(2,2,2-trifluoro-ethoxy)-pyridine-2-carboxylic acid [2-methanesulfonyl-1-methyl-1-(5-methyl-[1,2,4]oxadiazol-3-yl)-ethyl]-amide]	0.0554 µM	> 10 µM	–	–	–
CC(C)(C)C(NC(=O)c1cc(OCC(F)(F)F)c(C2CC2)cn1)C(=O)N1CC(F)(F)C1 (centres unmarked) [Example 197, 5-cyclopropyl-N-[1-(3,3-difluoroazetidin-1-yl)-3,3-dimethyl-1-oxobutan-2-yl]-4-(2,2,2-trifluoroethoxy)pyridine-2-carboxamide]	0.0076 µM	> 10 µM	–	–	–
CNC(=O)[C@@H](NC(=O)c1cc(OCC(F)(F)F)c(Cl)cn1)C(C)(C)C [Example 24, 5-Chloro-4-(2,2,2-trifluoro-ethoxy)-pyridine-2-carboxylic acid ((S)-2,2-dimethyl-1-methylcarbamoyl-propyl)-amide]	0.0098 µM	> 10 µM	–	–	–
C[C@H](Oc1cc(C(=O)NC(C(=O)N2CCC2)C(C)(C)C)ncc1C1CC1)C(F)(F)F (stereo partly drawn) [Example 202, N-[1-(azetidin-1-yl)-3,3-dimethyl-1-oxobutan-2-yl]-5-cyclopropyl-4-[(2S)-1,1,1-trifluoropropan-2-yl]oxypyridine-2-carboxamide]	0.0022 µM	> 10 µM	–	–	–
CC(CC(N)=O)(NC(=O)c1cc(OCC(F)F)c(C2CC2)cn1)C1CC1 (single isomer, unassigned) [Example 273, N-[4-amino-2-cyclopropyl-4-oxobutan-2-yl]-5-cyclopropyl-4-(2,2-difluoroethoxy)pyridine-2-carboxamide]	–	–	0.0017 µM	–	> 10 µM
C[C@H](Oc1cc(C(=O)NC2(CC(N)=O)CS(=O)(=O)C2)ncc1C1(F)CCC1)C(F)(F)F [Example 305, N-[3-(2-amino-2-oxoethyl)-1,1-dioxothietan-3-yl]-5-(1-fluorocyclobutyl)-4-[(2S)-1,1,1-trifluoropropan-2-yl]oxypyridine-2-carboxamide]	0.0051 µM	> 10 µM	–	–	–
Cc1nc(C(C)(CO)NC(=O)c2cc(OCC(F)(F)F)c(C3CC3)cn2)no1 (centres unmarked) [Example 113, 5-cyclopropyl-N-[1-hydroxy-2-(5-methyl-1,2,4-oxadiazol-3-yl)propan-2-yl]-4-(2,2,2-trifluoroethoxy)pyridine-2-carboxamide]	0.263 µM	> 10 µM	–	–	–
C[C@@H](Oc1cc(C(=O)NC2(CC(N)=O)COC2)ncc1C1CC1)C(F)(F)F [Example 63, 5-Cyclopropyl-4-((R)-2,2,2-trifluoro-1-methyl-ethoxy)-pyridine-2-carboxylic acid (3-carbamoylmethyl-oxetan-3-yl)-amide]	0.283 µM	> 10 µM	–	–	–
CCC(O)CNC(=O)c1cc(OCC2CC2)c(C2CC2)cn1 (centres unmarked) [Example 58, 5-Cyclopropyl-4-cyclopropylmethoxy-pyridine-2-carboxylic acid (2-hydroxy-butyl)-amide]	0.0637 µM	> 10 µM	–	–	–
C[C@H](Oc1cc(C(=O)NC(c2noc(N)n2)C(C)(C)C)ncc1C1CC1)C(F)(F)F (stereo partly drawn) [Example 219, N-[1-(5-amino-1,2,4-oxadiazol-3-yl)-2,2-dimethylpropyl]-5-cyclopropyl-4-[(2S)-1,1,1-trifluoropropan-2-yl]oxypyridine-2-carboxamide]	0.001 µM	> 10 µM	–	–	–
Cc1nc([C@@](C)(NC(=O)c2cc(O[C@@H](C)C(F)(F)F)c(C3(F)COC3)cn2)C2CC2)no1 [Example 168, N-[1-cyclopropyl-1-(5-methyl-1,2,4-oxadiazol-3-yl)ethyl]-5-(3-fluorooxetan-3-yl)-4-[(2S)-1,1,1-trifluoropropan-2-yl]oxypyridine-2-carboxamide]	0.281 µM	> 10 µM	–	–	–
Cc1nc(C(C)(CS(C)(=O)=O)NC(=O)c2cc(OC(C)CF)c(C3CC3)cn2)no1 (single isomer, unassigned) [Example 297, 5-cyclopropyl-4-(1-fluoropropan-2-yloxy)-N-(2-(5-methyl-1,2,4-oxadiazol-3-yl)-1-(methylsulfonyl)propan-2-yl)picolinamide]	0.0032 µM	–	–	–	> 10 µM

Source: patent US9409866B2, “Pyridine-2-amides useful as CB2 agonists” (Hoffmann-La Roche Inc., priority 2012, dated 2016)
